Results from patent US12378234B2, “Crystalline polymorphs of a 1-thiazol-2-yl-pyrazole-5-carboxylic acid derivative” (Bantam Pharmaceutical, LLC, priority 2019, dated 2025).
Values after ≈ are worked out from the molar mass of the structure shown.

Key:
Format in all cases: physicochemical
[1] = Dynamic vapor sorption (DVS)
Protocol: TGA and DSC measurements indicated weight loss of 0.1% at 150° C. and an endothermic peak at 120.0° C.
Dynamic Vapor Sorption (DVS) was measured with a SMS DVS Intrinsic from Surface Measurement Systems (London, United Kingdom) using the following parameters: temperature: 25° C.; sample size: 10-20 mg; gas and flow rate: N2 and 200 mL/min; dm/dt: 0.002%/min; min. dm/dt stability duration: 10 min; max. equilibrium time: 180 min; relative humidity (RH) range: 0% RH-95% RH-0% RH; RH step size: 10%.

[2] = Solubility of crystalline polymorph in biologically relevant media (water, SGF, FaSSIF, FeSSIF), HPLC of supernatant, pH, XRPD of remaining solids; details: for solubility at 1 h / solubility at 4 h / solubility at 24 h: thermodynamic from solid, 37° C.; for pH: solubility test
Protocol: The solubility of crystalline polymorph Form 1 was tested in biologically relevant media: water, simulated gastric fluid (SGF), fasted state simulated intestinal fluid (FaSSIF) and fed state simulated intestinal fluid (FeSSIF). For example, the crystalline polymorph was suspended in the solvent with stirring at 400 rpm at 37° C. for 1 h, 4 h and 24 h followed by filtration. The supernatant concentration was measured by HPLC (Mobile phase A: 0.1% NH3 in H2O, Mobile phase B: acetonitrile; flow rate: 0.8 mL/min; injection volume: 5 μL). The remaining solids were tested by XRPD.
The solubility of crystalline polymorph Form 11 was tested in biologically relevant media: water, SGF, FaSSIF, and FeSSIF. For example, the crystalline polymorph was suspended in the solvent with stirring at 400 rpm at 37° C. for 1 h, 4 h and 24 h followed by filtration. The supernatant was measured by HPLC for concentration and the remaining solids were tested by XRPD.

[3] = Slurry conversion (competitive) experiments for thermodynamic stability relationship; details: slurry of Form 1:Form 5 (1:1) in H2O:acetone (9:1) or H2O:ethanol (3:1), room temperature, 2 or 3 days
Protocol: To determine the thermodynamic stability relationship between Form 1 and Form 5, slurry conversion experiments were conducted. Specifically, Form 1 sample was added to 1.0 mL H2O:acetone (9:1 v:v) or 0.8 mL of H2O:ethanol (3:1 v:v) at room temperature. After equilibrium for 1 hr, the suspensions were filtered to obtain a saturated solution Form 1. To each saturated solution of Form 1:Form 5 (1:1) was added. After stirring at room temperature for 2 or 3 days, the solids were isolated for XRPD analysis.
To determine the thermodynamic stability relationship between Form 11 and Form 12, slurry conversion experiments were conducted. Specifically, Form 12 (2.5 mg) was added to 1.0 mL of 4% dichloromethane at room temperature. After equilibrium for 1 hour, the suspensions were filtered to obtain a saturated solution Form 12. To the saturated solution of Form 11:Form 12 (1:1) was added. After stirring at room temperature for 30 minutes, the solids were isolated for XRPD analysis. […] The pH of Form 11 solution (2.5 mg in 1 mL of 4% dichloromethane) and Form 12 solution (2.5 mg in 1 mL of 4% dichloromethane) was measured to be 8.25 and 7.98, respectively.

[4] = Physical and chemical stability under stressed conditions (HPLC, XRPD); details: 40° C./75% RH for 1 week
Protocol: Physical and chemical stability evaluation has been performed for crystalline polymorph Form 1 under stressed conditions. In the experiments, about 10 mg of the polymorph was placed into 4 ml glass vials that were stored under 40° C./75% RH for 1 week. HPLC was utilized to evaluate the degradation, and XPRD was used to evaluate the crystalline polymorph.

In the case of `Cc1nn(-c2nc(C3=CCC(C(F)(F)F)CC3)c(SC(C)C)s2)c(C(=O)O)c1-c1cccc(F)c1` (stereo not drawn) [Form 1, 4-(3-fluorophenyl)-1-(5-(isopropylthio)-4-(4-(trifluoromethyl)cyclohex-1-en-1-yl)thiazol-2-yl)-3-methyl-1H-pyrazole-5-carboxylic acid], the “water uptake (DVS)” value ([1]; 25° C./80% relative humidity) is reported as 0.6%, the “form change before and after DVS” value ([1]; XRPD, FIG. 1E) is reported as “no form change was observed” and the hygroscopicity ([1]; from DVS at 25° C./80% relative humidity) is reported as “slightly hygroscopic”. The “Form change by XRPD of remaining solids” value ([2]; after solubility test in FaSSIF) was “one unknown peak was observed at about 31 2θ degrees”, the “Form change by XRPD of remaining solids” value ([2]; after solubility test in FeSSIF) was “no form change was observed” and the “Form change by XRPD of remaining solids” value ([2]; after solubility test in SGF) was “no form change was observed”. The “Form change by XRPD of remaining solids” value ([2]; after solubility test in water) was “no form change was observed”, the solubility at 1 h ([2]; fasted state simulated intestinal fluid (FaSSIF), FaSSIF, 1 hr) was 140 µg/mL (≈ 266 µM) and the solubility at 4 h ([2]; fasted state simulated intestinal fluid (FaSSIF), FaSSIF, 4 hr) was 220 µg/mL (≈ 419 µM). It also gave a solubility at 24 h ([2]; fasted state simulated intestinal fluid (FaSSIF), FaSSIF, 24 hr) of 200 µg/mL (≈ 381 µM), a solubility at 1 h ([2]; fed state simulated intestinal fluid (FeSSIF), FeSSIF, 1 hr) of 170 µg/mL (≈ 323 µM) and a solubility at 4 h ([2]; fed state simulated intestinal fluid (FeSSIF), FeSSIF, 4 hr) of 180 µg/mL (≈ 342 µM). The solubility at 24 h ([2]; fed state simulated intestinal fluid (FeSSIF), FeSSIF, 24 hr) was 140 µg/mL (≈ 266 µM), the solubility at 1 h ([2]; simulated gastric fluid (SGF), simulated gastric fluid, SGF, 1 hr) was 50 µg/mL (≈ 95.1 µM) and the solubility at 4 h ([2]; simulated gastric fluid (SGF), simulated gastric fluid, SGF, 4 hr) was 30 µg/mL (≈ 57.1 µM). For the same compound, the solubility at 24 h ([2]; simulated gastric fluid (SGF), simulated gastric fluid, SGF, 24 hr) was 30 µg/mL (≈ 57.1 µM), the pH ([2]; FaSSIF, 1 hr) was 6.55 and the pH ([2]; FaSSIF, 4 hr) was 5.75. The pH ([2]; FaSSIF, 24 hr) was 5.12, the pH ([2]; FeSSIF, 1 hr) was 5.07 and the pH ([2]; FeSSIF, 4 hr) was 5.06. The pH ([2]; FeSSIF, 24 hr) was 4.94, the pH ([2]; H2O, 1 hr) was 7.00 and the pH ([2]; H2O, 4 hr) was 7.82. It also gave a pH ([2]; H2O, 24 hr) of 6.68, a pH ([2]; SGF, 1 hr) of 1.93 and a pH ([2]; SGF, 4 hr) of 1.75. It also gave a pH ([2]; SGF, 24 hr) of 1.83, a solubility at 1 h ([2]; water, H2O, 1 hr) of 490 µg/mL (≈ 932 µM) and a solubility at 4 h ([2]; water, H2O, 4 hr) of 1300 µg/mL (≈ 2470 µM). The solubility at 24 h ([2]; water, H2O, 24 hr) was 1700 µg/mL (≈ 3230 µM), the “thermodynamic stability relationship between Form 1 and Form 5” value [3] was “more thermodynamically stable than Form 5” and the “physical and chemical stability” value [4] was “physically stable”.
